Measured values published in ChEMBL document CHEMBL2074151, “Molecular identification of a rat novel organic anion transporter moat1, which transports prostaglandin D(2), leukotriene C(4), and taurocholate” (Biochem Biophys Res Commun, 2000).

Key:
[1] = biological target: T1, Solute carrier organic anion transporter family member 2B1 (Rattus norvegicus, UniProt Q9JHI3); assay: (§1) TP_TRANSPORTER: uptake in Xenopus laevis oocytes; format: functional, cell-based; settings: oocyte
T1 sequence (Q9JHI3 whole entry): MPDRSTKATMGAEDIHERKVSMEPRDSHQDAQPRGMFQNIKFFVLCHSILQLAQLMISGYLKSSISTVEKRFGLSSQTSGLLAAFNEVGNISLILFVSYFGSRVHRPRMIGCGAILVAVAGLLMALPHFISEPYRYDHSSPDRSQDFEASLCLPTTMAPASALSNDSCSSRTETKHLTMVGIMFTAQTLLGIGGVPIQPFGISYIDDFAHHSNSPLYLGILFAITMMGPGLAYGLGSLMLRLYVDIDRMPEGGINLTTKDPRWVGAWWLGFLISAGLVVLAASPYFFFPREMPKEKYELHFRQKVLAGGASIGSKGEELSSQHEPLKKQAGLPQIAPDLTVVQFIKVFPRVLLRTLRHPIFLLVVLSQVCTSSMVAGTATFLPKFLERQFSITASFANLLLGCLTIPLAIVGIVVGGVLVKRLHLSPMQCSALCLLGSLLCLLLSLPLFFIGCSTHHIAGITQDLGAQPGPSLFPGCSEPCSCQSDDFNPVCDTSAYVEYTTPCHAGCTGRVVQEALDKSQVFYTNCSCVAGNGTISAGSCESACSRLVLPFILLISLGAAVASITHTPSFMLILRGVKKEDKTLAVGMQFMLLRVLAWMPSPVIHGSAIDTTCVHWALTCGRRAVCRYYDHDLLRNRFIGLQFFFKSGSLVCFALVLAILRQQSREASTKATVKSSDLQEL

[2] = biological target: T1, Solute carrier organic anion transporter family member 2B1; assay: TP_TRANSPORTER: inhibition of PGD2 uptake in Xenopus laevis oocytes; format: functional, cell-based, Oocyte
[3] = substrate: CCCCC/C=C\C\C=C/C=C/C=C/[C@@H](SC[C@@H](NC(=O)CC[C@H](N)C(=O)O)C(=O)NCC(=O)O)[C@@H](O)CCCC(=O)O; assay: as §1; format: functional, cell-based, Oocyte
[4] = substrate: CCCCC[C@H](O)/C=C/[C@H]1C(=O)C[C@H](O)[C@@H]1C/C=C\CCCC(=O)O; assay: as §1; format: functional, cell-based, Oocyte

CCCCC[C@H](O)/C=C/[C@@H]1[C@@H](C/C=C\CCCC(=O)O)[C@@H](O)C[C@H]1O [DINOPROST]
Activity [1]: is not a substrate [-] | IC50 [2]: 287 nM

CCCCC[C@H](O)/C=C/[C@H]1[C@H](O)CC(=O)[C@@H]1C/C=C\CCCC(=O)O [DINOPROSTONE]
Activity [1]: substrate [+]

CCCCC[C@H](O)/C=C/[C@H]1OC(O)C[C@H](O)[C@@H]1C/C=C\CCCC(=O)O (stereo not given in full) [THROMBOXANE B2]
Activity [1]: substrate [+]

CC#CCC(C)[C@H](O)/C=C/[C@@H]1[C@H]2C/C(=C/CCCC(=O)O)C[C@H]2C[C@H]1O (stereo not given in full) [ILOPROST]
Activity [1]: substrate [+]

CCCCC[C@H](O)/C=C/[C@H]1[C@H](O)CC(=O)[C@@H]1CCCCCCC(=O)O [ALPROSTADIL]
Activity [1]: substrate [+] | IC50 [2]: 35.8 nM

C[C@]12CC[C@H](OS(=O)(=O)O)CC1=CC[C@@H]1[C@@H]2CC[C@]2(C)C(=O)CC[C@@H]12 [PRASTERONE SULFURIC ACID]
Activity [1]: is not a substrate [-]

B1: Solute carrier organic anion transporter family member 2B1 (Rattus norvegicus) (protein)
chain: MPDRSTKATMGAEDIHERKVSMEPRDSHQDAQPRGMFQNIKFFVLCHSILQLAQLMISGYLKSSISTVEKRFGLSSQTSGLLAAFNEVGNISLILFVSYFGSRVHRPRMIGCGAILVAVAGLLMALPHFISEPYRYDHSSPDRSQDFEASLCLPTTMAPASALSNDSCSSRTETKHLTMVGIMFTAQTLLGIGGVPIQPFGISYIDDFAHHSNSPLYLGILFAITMMGPGLAYGLGSLMLRLYVDIDRMPEGGINLTTKDPRWVGAWWLGFLISAGLVVLAASPYFFFPREMPKEKYELHFRQKVLAGGASIGSKGEELSSQHEPLKKQAGLPQIAPDLTVVQFIKVFPRVLLRTLRHPIFLLVVLSQVCTSSMVAGTATFLPKFLERQFSITASFANLLLGCLTIPLAIVGIVVGGVLVKRLHLSPMQCSALCLLGSLLCLLLSLPLFFIGCSTHHIAGITQDLGAQPGPSLFPGCSEPCSCQSDDFNPVCDTSAYVEYTTPCHAGCTGRVVQEALDKSQVFYTNCSCVAGNGTISAGSCESACSRLVLPFILLISLGAAVASITHTPSFMLILRGVKKEDKTLAVGMQFMLLRVLAWMPSPVIHGSAIDTTCVHWALTCGRRAVCRYYDHDLLRNRFIGLQFFFKSGSLVCFALVLAILRQQSREASTKATVKSSDLQEL
Km [3]: 3.2 µM | Km [4]: 0.0355 µM
